Data published in patent publication US9872861B2, “Methods of treatment using selective Bcl-2 inhibitors” (AbbVie Inc., priority 2010, dated 2018).
Like-named read-outs stand apart in the source and are kept apart here. Marks after values point to notes of the source that are not given here.

Assays:
[1] = test system: spontaneous (NZB×NZW)F1 murine model of lupus; test: Spontaneous (NZB×NZW)F1 murine model of lupus: proteinuria, survival, lymphopenia; type: in vivo, (NZB×NZW)F1 mice
Source text: (See Liu, K. and C. Mohan, What do mouse models teach us about human SLE? Clin Immunol, 2006. 119(2): p. 123-30) This model has been well-characterized with respect to the patho-physiological changes analogous to those of human SLE. […] Renal histopathological changes include severe glomerulonephritis, mesangial and peripheral proliferative changes, capillary membrane thickening, tubular atrophy, and infiltration of lymphocytes and monocytes/macrophages as in the majority of human SLE patients. These changes result in disruption of kidney function as evidenced by severe proteinuria (PU) greater than 300 mg/dL as measured by albumin sticks, followed by mortality as measured by survival. […] (See Gelfand, M. C. and A. D. Steinberg, Therapeutic studies in NZB-W mice. II. Relative efficacy of azathioprine, cyclophosphamide and methylprednisolone. Arthritis Rheum, 1972. 15(3): p. 247-52; and Ramos, M. A., et al., Modulation of autoantibody production by mycophenolate mofetil: effects on the development of SLE in (NZB×NZW)F1 mice. Nephrol Dial Transplant, 2003. 18(5): p. 878-83)
(NZB×NZW)F1 females were purchased from The Jackson Laboratory (Bar Harbor, Me., USA) and maintained in a conventional animal housing facility throughout the experiment. […] Proteinuria (PU) and survival were monitored weekly, followed by biweekly measurement of lymphocyte and platelet counts, and anti-ds DNA production. PK parameters were also measured throughout the study. Impact on IgG deposition and renal pathology were assessed at the conclusion of the study. Severe PU was defined by two consecutive weekly measurements of PU 300 mg/dl using Albustix test strips (VWR). When mice became moribund, they were sacrificed according to Institutional Animal Care and Use Committee protocols. PU and survival data were presented as Kaplan-Meyer survival curves using Graphpad Prism software and group differences were considered significant at the level of p<0.05. Histologic scores were analyzed using ANOVA analysis. Anti-ds DNA were analyzed using one-way ANOVA analysis and Tukey post-test.

[2] = test system: peripheral blood immune cells; test: Peripheral blood lymphocytes in C57BL/6 mice, Cell Dyn hematology analyzer; type: in vivo; conditions: for inhibition in vivo at 100 mg/kg: Mus musculus, Lymphocyte
Protocol: The effect of the Bcl-2 selective/Bcl-XL sparing compounds on peripheral blood immune cells was also evaluated in C57BL/6 mice. Mice were treated four days with individual compounds (100 mg/kg, orally every day) and cell numbers were measured with a Cell Dyn hematology analyzer.

[3] = Exposure in spontaneous lupus model; type: in vivo; conditions: 30 mg/kg dosing
Source text: When mice became moribund, they were sacrificed according to Institutional Animal Care and Use Committee protocols.

FL5.12-Bcl-XL cells = test: Cellular efficacy in FL5.12 cells dependent on Bcl-XL; type: cell-based, murine; conditions: Mus musculus, 3% FBS

Compound: CC1(C)CCC(CN2CCN(c3ccc(C(=O)NS(=O)(=O)c4ccc(NCC5CCOCC5)c([N+](=O)[O-])c4)c(Oc4cnc5[nH]ccc5c4)c3)CC2)=C(c2ccc(Cl)cc2)C1 [Compound 1, 4-(4-{[2-(4-chlorophenyl)-4,4-dimethylcyclohex-1-en-1-yl]methyl}piperazin-1-yl)-N-({3-nitro-4-[(tetrahydro-2H-pyran-4-ylmethyl)amino]phenyl}sulfonyl)-2-(1H-pyrrolo[2,3-b]pyridin-5-yloxy)benzamide]
- % Mice with PU < 300 mg/dL ([1]; Week 47, 1 mg/kg daily oral): 51%
- % Survival ([1]; Week 47, 1 mg/kg daily oral): 60%
- % Mice with PU < 300 mg/dL ([1]; Week 47, 3 mg/kg daily oral): 50%
- % Survival ([1]; Week 47, 3 mg/kg daily oral): 70%
- % Mice with PU < 300 mg/dL ([1]; Week 47, 10 mg/kg daily oral): 66* %
- % Survival ([1]; Week 47, 10 mg/kg daily oral): 83* %
- % Mice with PU < 300 mg/dL ([1]; Week 47, 30 mg/kg daily oral): 94* %
- % Survival ([1]; Week 47, 30 mg/kg daily oral): 100* %
- % Mice with PU < 300 mg/dL ([1]; Week 47, 100 mg/kg daily oral): 100* %
- % Survival ([1]; Week 47, 100 mg/kg daily oral): 100* %
- lymphopenia in peripheral blood ([1]; spontaneous model, 30 mg/kg): 70%
- lymphopenia in peripheral blood ([1]; spontaneous model, 100 mg/kg): 70%
- survival ([1]; spontaneous model, 3, 10, 30 and 100 mg/kg): significantly prolonged survival
- onset of severe PU ([1]; spontaneous model, reaching significance at 10, 30 and 100 mg/kg): delayed onset of severe PU in a dose-dependent fashion
- Day 1 Lymphocytes ([2]; 1 oral dose of 100 mg/kg): 1.38 ×10^6
- Day 4 lymphocytes ([2]; 4 oral doses of 100 mg/kg): 1.32 ×10^6
- inhibition in vivo at 100 mg/kg ([2]; 24 h, 1 oral dose of 100 mg/kg, read-out: Day 1 % Reduction vs. Vehicle): 83%
- inhibition in vivo at 100 mg/kg ([2]; 96 h, 4 oral doses of 100 mg/kg, read-out: Day 4 % Reduction vs. Vehicle): 83%
- exposure [3]: 40000 ng·h/mL
- EC50 (FL5.12-Bcl-XL cells): 261 nM
